Our source for the IC50 and EC30 values is patent US9346761B2, “Arginine methyltransferase inhibitors and uses thereof” (Epizyme, Inc., priority 2013, dated 2016).

Where only a bound is given, the exact number is not on record here.

In one assay the target is T1, Full-length human PRMT6 (Homo sapiens, UniProt Q96LA8).
T1 construct: Flag-PRMT6-His was eluted with 200 ug/ml FLAG peptide in the same buffer; made in house; host or cells: HEK 293F cells (BacMam virus, pFastBacMam)
Briefly: PRMT6 biochemical assay (3H-SAM Flashplate, peptide substrate). The source says: General Materials. S-adenosylmethionine (SAM), S-adenosylhomocysteine (SAH), bicine, Tween20, dimethylsulfoxide (DMSO), bovine skin gelatin (BSG), sodium butyrate and Tris(2-carboxyethyl)phosphine hydrochloride solution (TCEP) were purchased from Sigma-Aldrich at the highest level of purity possible. ^3H-SAM was purchase from American Radiolabeled Chemicals with a specific activity of 80 Ci/mmol. 384-well streptavidin Flashplates were purchased from PerkinElmer.
Substrates. Peptide representative of human histone H4 residues 36-50 was synthesized with an N-terminal linker-affinity tag motif and a C-terminal amide cap by 21st Century Biochemicals.
The amplified gene was subcloned into pFastBacMam (Viva Biotech).
Protein Expression. Recombinant baculovirus were generated according to Bac-to-Bac kit instructions (Life Technologies). […] Infections were carried out at 37° C. for 48 hours, harvested by centrifugation, and stored at −80° C. for purification.
Protein Purification. […] Column was washed with 20 mM imidazole in the same buffer and Flag-PRMT6-His was eluted with 150 mM imidazole. Pooled fractions were dialysed against buffer Ni-A and further purified by anti-flag M2 affinity chromatography. Flag-PRMT6-His was eluted with 200 ug/ml FLAG peptide in the same buffer. Pooled fractions were dialysed in 20 mM Tris, 150 mM NaCl, 10% glycerol and 5 mM β-mercaptoethanol, pH 7.8.
(§1) General Procedure for PRMT6 Enzyme Assays on Peptide Substrates. The assays were all performed in a buffer consisting of 20 mM Bicine (pH=7.6), 1 mM TCEP, 0.005% BSG, and 0.002% Tween 20, prepared on the day of use. […] DMSO (1 ul) was added to Columns 11, 12, 23, 24, rows A-H for the maximum signal control and 1 ul of SAH, a known product and inhibitor of PRMT6, was added to columns 11, 12, 23, 24, rows I-P for the minimum signal control. A cocktail (40 ul) containing the PRMT6 enzyme was added by Multidrop Combi (Thermo-Fisher). The compounds were allowed to incubate with PRMT6 for 30 min at room temperature, then a cocktail (10 ul) containing SAM and peptide was added to initiate the reaction (final volume=51 ul). […] The assays were stopped by the addition of non-radiolabeled SAM (10 ul) to a final concentration of 400 uM, which dilutes the ^3H-SAM to a level where its incorporation into the peptide substrate is no longer detectable. 50 ul of the reaction in the 384-well polypropylene plate was then transferred to a 384-well Flashplate and the biotinylated peptides were allowed to bind to the streptavidin surface for at least 1 hour before being washed once with 0.1% Tween20 in a Biotek ELx405 plate washer. The plates were then read in a PerkinElmer TopCount plate reader to measure the quantity of ^3H-labeled peptide bound to the Flashplate surface, measured as disintegrations per minute (dpm) or alternatively, referred to as counts per minute (cpm).
(§2) Where dpm=disintegrations per minute, cmpd=signal in assay well, and min and max are the respective minimum and maximum signal controls.
(§3) Where top and bottom are the normally allowed to float, but may be fixed at 100 or 0 respectively in a 3-parameter fit. The Hill Coefficient normally allowed to float but may also be fixed at 1 in a 3-parameter fit. Y is the % inhibition and X is the compound concentration.

The target in assay [1] is T2, Full-length human PRMT1 isoform 1 (Homo sapiens, UniProt Q99873).
T2 construct: GST-tagged PRMT1; made in house; host or cells: High Five insect cells (baculovirus, pFastBacI)
Put plainly: PRMT1 biochemical assay (3H-SAM Flashplate, peptide substrate).
Text: General Materials. S-adenosylmethionine (SAM), S-adenosylhomocysteine (SAH), bicine, Tween20, dimethylsulfoxide (DMSO), bovine skin gelatin (BSG), and Tris(2-carboxyethyl)phosphine hydrochloride solution (TCEP) were purchased from Sigma-Aldrich at the highest level of purity possible. ^3H-SAM was purchase from American Radiolabeled Chemicals with a specific activity of 80 Ci/mmol. 384-well streptavidin Flashplates were purchased from PerkinElmer.
Protein Expression. Recombinant baculovirus were generated according to Bac-to-Bac kit instructions (Life Technologies). […] Infections were carried out at 27° C. for 48 hours, harvested by centrifugation, and stored at −80° C. for purification.
Protein Purification. […] GST-tagged PRMT1 was eluted with 50 mM Tris, 2 mM glutathione, pH 7.8, dialysed in buffer A and concentrated to 1 mg/mL.
as §1, with “PRMT1” for “PRMT6”, “PRMT1,” for “PRMT6,”, “300” for “400”
as §2, §3

The test system of assay [2] is mono-methyl arginine in RKO cells. Briefly: RKO methylation assay, In Cell Western for mono-methyl arginine and DNA content. The class given is cell-based. To be noted: Homo sapiens; In Cell Western, RKO cells, 72 hours, percent activation of mono-methyl arginine signal; read-out: EC30. From the text: RKO adherent cells were purchased from ATCC (American Type Culture Collection), Manassas, Va., USA. DMEM/Glutamax medium, penicillin-streptomycin, heat inactivated fetal bovine serum, 0.05% trypsin and D-PBS were purchased from Life Technologies, Grand Island, N.Y., USA. Odyssey blocking buffer, 800CW goat anti-rabbit IgG (H+L) antibody, and Licor Odyssey infrared scanner were purchased from Licor Biosciences, Lincoln, Nebr., USA. Mono-methyl arginine antibody was purchased from Cell Signaling Technology, Danvers, Mass., USA. Methanol was purchased from VWR, Franklin, Mass., USA. 10% Tween 20 was purchased from KPL, Inc., Gaithersburg, Md., USA. […] was purchased from Biostatus Limited, Leicestershire, UK.
RKO adherent cells were maintained in growth medium (DMEM/Glutamax medium supplemented with 10% v/v heat inactivated fetal bovine serum and 100 units/mL penicillin-streptomycin) and cultured at 37° C. under 5% CO2
Cell Treatment, in Cell Western (ICW) for Detection of Mono-Methyl Arginine and DNA Content. […] Compound (100 nL) from a 96-well source plate was added directly to 384 well cell plate. Plates were incubated at 37° C., 5% CO2 for 72 hours. After three days of incubation, plates were brought to room temperature outside of the incubator for ten minutes and blotted on paper towels to remove cell media. 50 μL of ice cold 100% methanol was added directly to each well and incubated for 30 min at room temperature. After 30 min, plates were transferred to a Biotek EL406 plate washer and washed 2 times with 100 μL per well of wash buffer (1×PBS). Next 60 μL per well of Odyssey blocking buffer (Odyssey Buffer with 0.1% Tween 20 (v/v)) were added to each plate and incubated 1 hour at room temperature. Blocking buffer was removed and 20 μL per well of primary antibody was added (mono-methyl arginine diluted 1:200 in Odyssey buffer with 0.1% Tween 20 (v/v)) and plates were incubated overnight (16 hours) at 4° C. Plates were washed 5 times with 100 μL per well of wash buffer. […] The plates were washed 5 times with 100 μL per well wash buffer then 2 times with 100 μL per well of water. Plates were allowed to dry at room temperature then imaged on the Licor Odyssey machine which measures integrated intensity at 700 nm and 800 nm wavelengths. Both 700 and 800 channels were scanned.
Calculations: First, the ratio for each well was determined by:
Each plate included fourteen control wells of DMSO only treatment (minimum activation) as well as fourteen control wells for maximum activation treated with 20 μM of a reference compound. The average of the ratio values for each control type was calculated and used to determine the percent activation for each test well in the plate. Reference compound was serially diluted three-fold in DMSO for a total of nine test concentrations, beginning at 20 μM. Percent activation was determined and EC30 curves were generated using triplicate wells per concentration of compound.

T2 sequence (Q99873 with tags, fused parts or gaps): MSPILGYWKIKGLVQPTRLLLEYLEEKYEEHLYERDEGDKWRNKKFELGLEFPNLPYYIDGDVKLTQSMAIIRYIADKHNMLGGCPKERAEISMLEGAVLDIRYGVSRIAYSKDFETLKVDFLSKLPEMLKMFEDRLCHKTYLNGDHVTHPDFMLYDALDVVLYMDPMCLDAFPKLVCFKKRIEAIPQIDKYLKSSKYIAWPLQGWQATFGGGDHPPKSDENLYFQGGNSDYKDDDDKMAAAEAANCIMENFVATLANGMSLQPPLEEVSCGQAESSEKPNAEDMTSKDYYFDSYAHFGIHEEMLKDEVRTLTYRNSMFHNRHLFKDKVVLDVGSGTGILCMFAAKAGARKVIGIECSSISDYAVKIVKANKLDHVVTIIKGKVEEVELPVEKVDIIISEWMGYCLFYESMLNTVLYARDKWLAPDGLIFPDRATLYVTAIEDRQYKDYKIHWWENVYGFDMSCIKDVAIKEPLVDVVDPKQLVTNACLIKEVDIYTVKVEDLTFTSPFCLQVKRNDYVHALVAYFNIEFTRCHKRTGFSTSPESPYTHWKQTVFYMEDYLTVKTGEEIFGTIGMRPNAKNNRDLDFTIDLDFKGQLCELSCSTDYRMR
T1 sequence (Q96LA8 with tags, fused parts or gaps): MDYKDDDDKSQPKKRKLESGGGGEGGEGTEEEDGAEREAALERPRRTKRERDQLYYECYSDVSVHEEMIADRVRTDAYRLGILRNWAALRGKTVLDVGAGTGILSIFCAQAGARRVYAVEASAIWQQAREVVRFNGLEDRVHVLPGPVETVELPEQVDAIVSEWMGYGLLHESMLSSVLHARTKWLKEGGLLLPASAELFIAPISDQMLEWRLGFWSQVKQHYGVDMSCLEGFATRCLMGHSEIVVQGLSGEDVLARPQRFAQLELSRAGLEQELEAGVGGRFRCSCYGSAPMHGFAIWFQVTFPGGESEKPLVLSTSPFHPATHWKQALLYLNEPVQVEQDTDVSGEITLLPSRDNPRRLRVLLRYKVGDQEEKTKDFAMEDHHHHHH

Consider `CNCCN(C)Cc1n[nH]c(C)c1-c1ccc(OC(C)C)cc1` [Compound 275], for which the IC50 (on Full-length human PRMT6; in assay [1]) was less than 100 nM in each case. In addition, the EC30 in assay [2] is less than 3000 nM.

Regarding `CNCCN(C)Cc1c[nH]nc1-c1ccc(Oc2cccc(C(=O)NC)c2)cc1` [Compound 263], the IC50 (against Full-length human PRMT6; in assay [1]) was less than 100 nM throughout. Also, in assay [2], the concentration for an effect of 30% (EC30) is less than 3000 nM.

For the compound `CNCCN(C)Cc1c[nH]nc1-c1ccc(Oc2cccc(F)c2)cc1` [Compound 231], the concentration for half-maximal inhibition (IC50) (against Full-length human PRMT6; in assay [1]) was less than 100 nM in each case. Besides, the EC30 in assay [2] was less than 3000 nM.

For the compound `CNCCN(C)Cc1nn(C)cc1-c1ccc(OCCCOC)cc1` [Compound 266], the IC50 was less than 100 nM against Full-length human PRMT6 and 101 to 1000 nM in assay [1]. The EC30 in assay [2] is more than 12000 nM.

On to `CC(C)Oc1ccc(-c2nn(C)cc2CN(C)CCN)cc1` [Compound 176], for which the IC50 (on Full-length human PRMT6; in assay [1]) was less than 100 nM in each case. In addition, the EC30 in assay [2] was less than 3000 nM.

`CC(C)Cc1cccc(-c2n[nH]cc2CN(C)CCN)c1` [Compound 235]: the IC50 at Full-length human PRMT6 was 101 to 1000 nM; in assay [1], less than 100 nM. The EC30 in assay [2] was less than 3000 nM.

Regarding `CNCCN(C)Cc1c[nH]nc1-c1ccc(Oc2cccc(C(C)C)c2)cc1` [Compound 262], the IC50 (at Full-length human PRMT6; in assay [1]) was less than 100 nM throughout. The concentration for an effect of 30% (EC30) in assay [2] was less than 3000 nM.

Consider `CNCCN(C)Cc1c[nH]nc1-c1cc(OC(C)C)cc(C(C)C)c1` [Compound 260], for which the IC50 on Full-length human PRMT6 was 101 to 1000 nM; in assay [1] it was less than 100 nM. For the same compound, the EC30 in assay [2] was 3010 to 12000 nM.

For `CC(C)Cc1cc(-c2n[nH]cc2CN(C)CCN)ccc1F` [Compound 280], the IC50 (on Full-length human PRMT6; in assay [1]) was less than 100 nM each time. In assay [2], the EC30 was less than 3000 nM.

Consider `CNCCN(C)Cc1n[nH]cc1-c1ccc(Oc2ccccc2)c(C#N)c1` [Compound 234], for which the IC50 (against Full-length human PRMT6; in assay [1]) was less than 100 nM in each case. For the same compound, the EC30 in assay [2] is less than 3000 nM.

Take `CNCCN(C)Cc1c[nH]nc1-c1cc(Cl)c(OC(C)C)c(Cl)c1` [Compound 265, N^1-((3-(3,5-dichloro-4-isopropoxyphenyl)-1H-pyrazol-4-yl)methyl)-N^1,N^2-dimethylethane-1,2-diamine]: the IC50 (against Full-length human PRMT6; in assay [1]) was less than 100 nM in each case. Further, the EC30 in assay [2] was less than 3000 nM.

Regarding `CNCCN(C)Cc1n[nH]cc1-c1ccc(Oc2cccc(C(C)C)c2)cc1` [Compound 277], the IC50 (at Full-length human PRMT6; in assay [1]) was less than 100 nM in each case. Moreover, the concentration for an effect of 30% (EC30) in assay [2] is more than 12000 nM.

Turning to `CNCCN(C)Cc1n[nH]cc1-c1ccc(Oc2ccccc2F)cc1` [Compound 279, N^1-((4-(4-(2-fluorophenoxy)phenyl)-1H-pyrazol-3-yl)methyl)-N^1,N^2-dimethylethane-1,2-diamine], the IC50 (against Full-length human PRMT6; in assay [1]) was less than 100 nM each time. In assay [2], the EC30 is less than 3000 nM.

Consider `CNCCN(C)Cc1c[nH]nc1-c1ccc(OC(C)C)c(F)c1` [Compound 181], for which the half-inhibitory concentration (IC50) (against Full-length human PRMT6; in assay [1]) was less than 100 nM each time. The EC30 in assay [2] was more than 12000 nM.

Turning to `CNCCN(C)Cc1n[nH]cc1-c1cc(CC(C)C)cc(CC(C)C)c1` [Compound 271], the 50% inhibitory concentration (IC50) against Full-length human PRMT6 is 101 to 1000 nM; in assay [1], less than 100 nM. The EC30 in assay [2] was more than 12000 nM.

For `CNCCN(C)Cc1n[nH]cc1-c1cc(Cl)c(OC(C)C)c(Cl)c1` [Compound 273], the half-maximal inhibitory concentration (IC50) (against Full-length human PRMT6; in assay [1]) was less than 100 nM throughout. The EC30 in assay [2] is less than 3000 nM.

Take `CNCCN(C)Cc1c[nH]nc1-c1cc(Cl)c(OCC2CC2)c(Cl)c1` [Compound 282]: the IC50 (against Full-length human PRMT6; in assay [1]) was less than 100 nM each time. For the same compound, in assay [2], the EC30 was less than 3000 nM.

With `CNCCN(C)Cc1n[nH]cc1-c1ccc(Oc2ccccc2)c(C(=O)NC)c1` [Compound 240], the half-maximal inhibitory concentration (IC50) (at Full-length human PRMT6; in assay [1]) was less than 100 nM each time. Besides, the concentration for an effect of 30% (EC30) in assay [2] lay in the range of 3010 to 12000 nM.

As for `CNCCN(C)Cc1n[nH]cc1-c1cc(OC(C)C)cc(C(C)C)c1` [Compound 272], the IC50 at Full-length human PRMT6 is 1010 to 3000 nM; in assay [1], 101 to 1000 nM. Besides, the EC30 in assay [2] was more than 12000 nM.
